Drawing on patent US8420630B2 (Boehringer Ingelheim Pharma GmbH & Co. KG, priority 2001, dated 2013), this text covers IC50 for 27 compounds.

Counter-ions that a name gives are not always drawn. Bounds are passed on as bounds.

T1 sequence (P06493 whole entry): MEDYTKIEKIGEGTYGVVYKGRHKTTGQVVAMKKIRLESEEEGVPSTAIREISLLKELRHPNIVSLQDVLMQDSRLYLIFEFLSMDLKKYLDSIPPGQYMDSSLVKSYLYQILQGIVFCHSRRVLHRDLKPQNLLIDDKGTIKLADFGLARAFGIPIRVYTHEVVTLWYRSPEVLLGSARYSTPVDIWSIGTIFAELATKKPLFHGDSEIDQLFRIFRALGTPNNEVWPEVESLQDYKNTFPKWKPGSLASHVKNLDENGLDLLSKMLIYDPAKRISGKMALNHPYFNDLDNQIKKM
T1 sequence (P14635 whole entry partner): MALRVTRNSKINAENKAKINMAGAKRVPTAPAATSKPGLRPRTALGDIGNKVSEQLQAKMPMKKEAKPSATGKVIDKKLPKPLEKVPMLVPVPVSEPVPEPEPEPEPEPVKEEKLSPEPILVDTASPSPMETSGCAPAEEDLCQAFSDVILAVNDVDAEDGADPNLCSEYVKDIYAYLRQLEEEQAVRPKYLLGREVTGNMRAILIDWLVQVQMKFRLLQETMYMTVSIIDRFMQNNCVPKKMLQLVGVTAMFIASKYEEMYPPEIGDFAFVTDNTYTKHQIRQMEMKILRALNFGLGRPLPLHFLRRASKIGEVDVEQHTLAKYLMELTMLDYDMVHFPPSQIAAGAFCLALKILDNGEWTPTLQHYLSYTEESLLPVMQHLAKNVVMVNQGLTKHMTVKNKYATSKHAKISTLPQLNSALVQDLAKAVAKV

The experiment addresses T1, CDK1/cyclinB1 (Homo sapiens, UniProt P06493).
T1 construct: made in house; host or cells: High Five insect cells (Trichoplusia ni), baculovirus coinfection
The experiment can be described thus: Cyclin B1-CDK1 kinase inhibition test. The settings on record: CDK1 tests (Example 13); recombinant cyclin B1/CDK1, substrate histone H1; read-out: CDK1/cyclinB1 IC50 value. Type of experiment: biochemical. The method, boiled down: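 Baculovirus-expressed CDK1/cyclin B1 phosphorylated histone H1 with ATP mix containing 0.045 mM ATP plus ^33P-ATP for 30 min at 30 °C. Protein was precipitated with TCA and filter-bound radioactivity read by scintillation counting. Olomoucin at 30 and 300 μM final served as internal control.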
Regarding `O=[N+]([O-])c1ccc(Nc2ncc([N+](=O)[O-])c(N3CCc4[nH]cnc4C3)n2)cc1` [Example 1(027), 2-(4-nitro-phenylamino)-4-(1,4,6,7-tetrahydro-imidazo[4,5-c]pyridin-5-yl)-5-nitro-pyrimidine], the IC50 is below 100 nM.
For `CC(=O)NCCNc1nc(Nc2ccc(Cl)c(Cl)c2)ncc1Br` [Example 2(002), 2-(3,4-dichlorophenylamino)-4-(2-acetylamino-ethylamino)-5-bromo-pyrimidine-hydrochloride] the value was below 100 nM; for `O=C1CCCN1CCCNc1nc(Nc2ccc3cn[nH]c3c2)ncc1C(F)(F)F` [Example 2(038), 1-{3-[2-(1H-Indazol-6-ylamino)-5-trifluoromethyl-pyrimidin-4-ylamino]-propyl}-pyrrolidin-2-one], below 100 nM.
For `NCCCOCCCNc1nc(Nc2ccc(Cl)c(Cl)c2)ncc1C(F)(F)F` [Example 1(073)] the value was below 100 nM; for `O=C(O)c1ccc(Nc2ncc(C(F)(F)F)c(NCCCN3CCCC3=O)n2)cc1` [Example 1(021), 2-(4-carboxy-phenylamino)-4-(3-(2-oxo-pyrrolidin-1-yl)-propyl-1-amino)-5-trifluoromethyl-pyrimidine], below 100 nM.
For `COCC(=O)NCCCNc1nc(Nc2ccc(C(N)=O)cc2)ncc1C(F)(F)F` [Example 7(028), 4-[4-(3-(2-methoxy-acetamino)-propylamino)-5-trifluoromethyl-pyrimidin-2-ylamino]-benzamide] the value was below 100 nM; for `CN(C)S(=O)(=O)c1ccc(Nc2ncc(Cl)c(NCCCN3CCCC3=O)n2)cc1` [Example 2(109), 4-{5-Chloro-4-[3-(2-oxo-pyrrolidin-1-yl)-propylamino]-pyrimidin-2-ylamino}-N,N-dimethyl-phenylsulphonamide], below 100 nM; for `CC(=O)NCCNc1nc(Nc2ccc(C(=O)NCc3cc(F)cc(F)c3)cc2)ncc1C(F)(F)F` [Example 8(026), 4-[4-(2-acetylamino-ethylamino)-5-trifluoromethyl-pyrimidin-2-ylamino]-N-(3,5-difluorobenzyl)-benzamide], below 100 nM.
As for `O=C1CCCN1CCCNc1nc(Nc2ccc(Cl)c(Cl)c2)ncc1Br` [Example 1(661), 1-{3-[5-Bromo-2-(3,4-dichloro-phenylamino)-pyrimidin-4-ylamino]-propyl}-pyrrolidin-2-one], the IC50 was below 100 nM.
For `O=C1NCCN1CCNc1nc(Nc2ccc(S(=O)(=O)N3CCOCC3)cc2)ncc1C(F)(F)F` [Example 2(051), 1-(2-{2-[4-(Morpholin-4-sulphonyl)-phenylamino]-5-trifluoromethyl-pyrimidin-4-ylamino}-ethyl)-imidazolidin-2-one] the value was below 100 nM; for `CC(=O)NCCNc1nc(Nc2ccc(C(=O)O)cc2)ncc1C(F)(F)F` [Example 9(001), 4-[4-(2-acetylamino-ethylamino)-5-trifluoromethyl-pyrimidin-2-ylamino]-benzoic acid], below 100 nM; for `CC(=O)NCCNc1nc(Nc2ccc(CC(=O)N(C)C)cc2)ncc1C(F)(F)F` [Example 2(053), 2-{4-[4-(2-Acetylamino-ethylamino)-5-trifluoromethyl-pyrimidin-2-ylamino]-phenyl}-N,N-dimethyl-acetamide], below 100 nM.
For `O[C@H]1CC[C@@H](Nc2nc(Nc3ccc(Cl)c(Cl)c3)ncc2C(F)(F)F)CC1` [Example 1(037), 2-(3,4-dichloro-phenylamino)-4-(cis-4-hydroxy-cyclohexylamino)-5-trifluoromethyl-pyrimidine] the value was below 100 nM; for `NCC1CCC(CNc2nc(Nc3ccc(Cl)cc3)ncc2C(F)(F)F)CC1` (stereo not drawn) [Example 1(107), 2-(4-chloro-phenylamino)-4-(4-aminomethyl-cyclohexylmethylamino)-5-trifluoromethyl-pyrimidine], below 100 nM; for `CC(=O)NCCNc1nc(Nc2ccc(S(=O)(=O)N3CC(C)NC(C)C3)cc2)ncc1C(F)(F)F` (stereo not drawn) [Example 2(061), N-(2-{2-[4-(3,5-Dimethyl-piperazin-1-sulphonyl)-phenylamino]-5-trifluoromethyl-pyrimidin-4-ylamino}-ethyl)-acetamide], below 100 nM.
For `O=C(O)c1ccc(Nc2ncc(C(F)(F)F)c(N3CCc4[nH]cnc4C3)n2)cc1` [Example 1(017), 2-(4-carboxy-phenylamino)-4-(1,4,6,7-tetrahydro-imidazo[4,5-c]pyridin-5-yl)-5-trifluoromethyl-pyrimidine] the value was below 100 nM; for `CN1CCC(N(C)c2nc(Nc3ccc(Cl)cc3)ncc2[N+](=O)[O-])CC1` [Example 1(044), 2-(4-chloro-phenylamino)-4-(N-(1-methyl-piperidin-4-yl)-N-methyl-amino)-5-nitro-pyrimidine], below 100 nM.
Regarding `Cn1ncc2ccc(Nc3ncc(C(F)(F)F)c(NCCCNS(=O)(=O)c4ccc(F)cc4)n3)cc21` [Example 7(012), 4-fluoro-N-{3-[2-(1-methyl-1H-indazol-6-ylamino)-5-trifluoromethyl-pyrimidin-4-ylamino]-propyl}-benzensulphonamide], the IC50 is below 100 nM.
For `CC(=O)NCCNc1nc(Nc2ccc(S(=O)(=O)Nc3ccccn3)cc2)ncc1C(F)(F)F` [Example 2(059), N-(2-{2-[4-(Pyridin-2-ylsulphamoyl)-phenylamino]-5-trifluoromethyl-pyrimidin-4-ylamino}-ethyl)-acetamide] the value was below 100 nM.
For `CC(C)COC(=O)NCCCNc1nc(Nc2ccc3cnn(C)c3c2)ncc1C(F)(F)F` [Example 7(024)] the value was below 100 nM.
For `CN(C)[C@H]1CC[C@H](Nc2nc(Nc3ccc(C(=O)O)cc3)ncc2[N+](=O)[O-])CC1` [Example 1(018), 2-(4-carboxy-phenylamino)-4-(trans-4-dimethylamino-cyclohexylamino)-5-nitro-pyrimidine] the value was below 100 nM.
For `NCCCNc1nc(Nc2cccc(Cl)c2)ncc1C(F)(F)F` [Example 1(012), 2-(3-chlorophenylamino)-4-(3-aminopropyl-amino)-5-trifluoromethyl-pyrimidine], the IC50 is below 100 nM.
Turning to `CC(=O)NCCNc1nc(Nc2ccc(-c3nn[nH]n3)cc2)ncc1C(F)(F)F` [Example 2(046), N-(2-{2-[4-(2H-Tetrazol-5-yl)-phenylamino]-5-trifluoromethyl-pyrimidin-4-ylamino}-ethyl)-acetamide], the IC50 was below 100 nM.
For `CC(=O)NCCCNc1nc(Nc2ccc(C(N)=O)cc2)ncc1C(F)(F)F` [Example 7(027), 4-[4-(3-acetylamino-propylamino)-5-trifluoromethyl-pyrimidin-2-ylamino]-benzamide] the value was below 100 nM; for `CC(=O)NCCNc1nc(Nc2ccc3cn(C)nc3c2)ncc1C(F)(F)F` [Example 1(656), N-{2-[2-(2-methyl-2H-indazol-6-ylamino)-5-trifluoromethyl-pyrimidin-4-ylamino]-ethyl}-acetamide], below 100 nM; for `NC1CCCC(Nc2nc(Nc3ccc4ccccc4c3)ncc2C(F)(F)F)C1` (stereo not drawn) [Example 1(039), 2-(2-naphthylamino)-4-(3-amino-cyclohexylamino)-5-trifluoromethyl-pyrimidine], below 100 nM.
For `COC(=O)NCCCNc1nc(Nc2ccc3cnn(C)c3c2)ncc1C(F)(F)F` [Example 7(022)] the value was below 100 nM.
